From US20220153732A1, “PROTEIN SECRETION INHIBITORS” (KEZAR LIFE SCIENCES, priority 2019, published 2022)
Where two headings read alike, the source gives them in different places.

Legend:
Type in all cases: cell-based
[1] = test system: PD1-ss+10aa/Gaussia Luciferase; assay: Dox-Induced PD1-ss-Gluc Assay; details: 293FRT/TO cells, read-out: 24 hr Dox Inducible PD1ssGluc 293FRT/TO: Mean IC50
In short: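 Stable cell line carrying PD1-ss+10aa/Gaussia luciferase cDNA under T-REx (doxycycline-inducible) control, plated the day before assay. Compound dilutions in DMSO/media containing doxycycline added and incubated at 37° C, 5% CO2. Undefined stereocentres: data refer to stereoisomer mixtures.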

[2] = test system: human multiple myeloma cell line NCI-H929; assay: H929 Cell Viability Assay; details: 48 hr, NCI-H929 cells, Celltiter-Glo, read-out: 48 hr H929 Viability Celltiter-Glo: Mean EC50
Experimental: Plates were incubated at 37° C., 5% CO2 for 48 hours. After 48 hours, Celltiter-Glo® (Promega) was added to each well and luciferase signal was quantified using Tecan Infinite M1000 Pro for cell viability determination.
For chemical structures that include one or more stereoisomers, but are illustrated without indicating stereochemistry, the assay data refers to a mixture of stereoisomers.

[3] = test system: IL-2-FL/Gaussia Luciferase; assay: Dox Induced IL2-FL-Gluc Assay; details: 293FRT/TO cells, read-out: 24 hr Dox Inducible IL2FLGIuc 293FRT/TO: Mean IC50
In short: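 Stable T-REx cell line expressing doxycycline-inducible IL-2-FL/Gaussia luciferase cDNA, plated the day before assay. Compound dilutions in DMSO/media containing doxycycline added and incubated at 37° C., 5% CO2. Unspecified stereochemistry means data refer to a stereoisomer mixture.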

[4] = test system: TNFα-FL/Gaussia Luciferase; assay: Dox Induced TNFα-FL-Gluc Assay; details: 293FRT/TO cells, read-out: 24 hr Dox Inducible TNFaFLGluc 293FRT/TO: Mean IC50
In short: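 A stable T-REx cell line carrying doxycycline-inducible TNFα-FL/Gaussia luciferase was plated the day before assay. Compound dilutions in DMSO/media containing doxycycline were then added and incubated at 37° C, 5% CO2.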

[5] = test system: human multiple myeloma cell line U266B1; assay: U266 Cell Viability Assay; details: U-266, 48 hr, U266B1 cells, Celltiter-Glo, read-out: 48 hr U266 Viability Celltiter-Glo: Mean EC50
In short: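 U266B1 myeloma cells treated with compound dilutions in DMSO/media for 48 h at 37 °C, 5% CO2. Viability read by CellTiter-Glo luminescence. Stereochemically undefined structures were tested as stereoisomer mixtures.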

[6] = test system: HER3-ss+4aa/Gaussia Luciferase; assay: Dox-Induced Her3-ss-Gluc Assay; details: 293FRT/TO cells, read-out: 24 hr Dox Inducible Her3(ss + 4)Gluc 293FRT/TO: Mean IC50
In short: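 Stable T-REx cell line carrying a doxycycline-regulated HER3-ss+4aa/Gaussia luciferase insert, plated the day before assay. Compound dilutions in DMSO/media with doxycycline added, then incubated at 37° C., 5% CO2. Stereoisomer mixtures tested where stereochemistry is not drawn.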

[7] = 24 hr doxycycline induction, Gaussia luciferase signal

Row | SMILES | IC50 [1, 7] [µM] | EC50 [2] [µM] | IC50 [3, 7] [µM] | IC50 [4, 7] [µM] | EC50 [5] [µM] | IC50 [6, 7] [µM] | IC50 ([1]; 24 hr, doxycycline-induced) [µM] | IC50 ([3]; 24 hr, doxycycline-induced) [µM] | IC50 ([4]; 24 hr, doxycycline-induced) [µM] | IC50 ([6]; 24 hr, doxycycline-induced) [µM]
1 | CC(C)c1csc(NC(=O)c2cccn2Cc2ccncc2)n1 [Compound A26, N-(4-isopropylthiazol-2-yl)-1-(pyridin-4-ylmethyl)-1H-pyrrole-2-carboxamide] | 0.319 | > 25 | 0.759 | 10.7 | > 25 | 0.817 | – | – | – | –
2 | O=C(Nc1nc(C2=CCC(c3ccccc3)CC2)cs1)c1cccn1Cc1ccncc1 (stereo not drawn) [Compound A249, 1-(pyridin-4-ylmethyl)-N-(4-(1,2,3,6-tetrahydro-[1,1-biphenyl]-4-yl)thiazol-2-yl)-1H-pyrrole-2-carboxamide] | 0.163 | 19.9 | 0.881 | 1.41 | 14.4 | 0.545 | – | – | – | –
3 | COc1cnc([C@@H]2C[C@H]2c2csc(NC(=O)c3cccn3Cc3ccncc3)n2)c(F)c1 [Compound A335] | – | 11.4 | – | – | > 25 | – | 0.13 | 0.752 | 3.01 | 0.411
4 | O=C(Nc1nc([C@H]2C[C@@H]2c2ccccc2)cs1)c1cccn1Cc1ccncc1 [Compound A194, N-(4-((1S,2S)-2-phenylcyclopropyl)thiazol-2-yl)-1-(pyridin-4-ylmethyl)-1H-pyrrole-2-carboxamide] | 0.28 | 6.67 | 1.14 | 2.3 | 16 | 0.6 | – | – | – | –
5 | O=C(Nc1nc(C2CC(c3ccccc3)C2)cs1)c1cccn1Cc1ccncc1 (stereo not drawn) [Compound A268] | 0.052 | 7.29 | 0.291 | 0.821 | > 25 | 0.129 | – | – | – | –
6 | N#Cc1cnc(NC(=O)c2cccn2Cc2ccncc2)s1 [Compound B15] | – | > 25 | – | – | > 25 | – | > 25 | > 25 | > 25 | > 25
7 | O=C(Nc1nc(/C=C/C2CCCOC2)cs1)c1cccn1Cc1ccncc1 (stereo not drawn) [Compound A154, 1-(pyridin-4-ylmethyl)-N-(4-(2-(tetrahydro-2H-pyran-3-yl)vinyl)thiazol-2-yl)-1H-pyrrole-2-carboxamide] | 0.694 | > 25 | 5.42 | 11.5 | > 25 | 2.6 | – | – | – | –
8 | Cc1cccc(/C=C/c2csc(NC(=O)c3cccn3Cc3ccncc3)n2)n1 [Compound A356] | – | > 25 | – | – | 23.8 | – | 0.035 | > 25 | 14.4 | 5.41
9 | O=C(Nc1nc([C@H]2C[C@@H](O)CN2c2ccccc2)cs1)c1cccn1Cc1ccncc1 [Compound A321] | – | 9.73 | – | – | > 25 | – | 0.215 | 0.948 | 4.17 | 0.902
10 | O=C(Nc1nc(CCc2ccccc2Cl)cs1)c1cccn1Cc1ccncc1 [Compound A178] | 0.152 | 9.27 | 0.5 | 0.929 | 19.9 | 0.367 | – | – | – | –
11 | COc1ccc([C@@H]2C[C@H]2c2csc(NC(=O)c3cccn3Cc3ccncc3)n2)nc1 [Compound A311] | – | 6.02 | – | – | 6.23 | – | 0.175 | 0.874 | 3.33 | 0.51
12 | CC(C)(OCC(F)(F)F)c1csc(NC(=O)c2cccn2Cc2ccncc2)n1 [Compound A15, 1-(pyridin-4-ylmethyl)-N-(4-(2-(2,2,2-trifluoroethoxy)propan-2-yl)thiazol-2-yl)-1H-pyrrole-2-carboxamide] | 0.169 | 16.6 | 0.11 | 5.43 | > 25 | 0.318 | – | – | – | –
13 | O=C(Nc1nc([C@H]2[C@H](O)CCN2c2ccccc2)cs1)c1cccn1Cc1ccncc1 [Compound A351] | – | 7.5 | – | – | > 25 | – | 0.167 | 0.259 | 0.954 | 0.45
14 | O=C(Nc1nc(/C=C/c2ccncc2)cs1)c1cccn1Cc1ccncc1 [Compound A166, N-(4-(2-(pyridin-4-yl)vinyl)thiazol-2-yl)-1-(pyridin-4-ylmethyl)-1H-pyrrole-2-carboxamide] | 13.5 | > 25 | > 25 | > 25 | > 25 | > 25 | – | – | – | –
15 | O=C(Nc1nc([C@H]2C[C@H]2c2ccccc2)cs1)c1cccn1Cc1ccncc1 [Compound A200] | 0.14 | 15.7 | 0.251 | 1.61 | > 25 | 0.332 | – | – | – | –
16 | CC(C)(C)c1csc(NC(=O)c2cccn2Cc2ccncc2Cl)n1 [Compound A77, N-(4-(tert-butyl)thiazol-2-yl)-1-((3-chloropyridin-4-yl)methyl)-1H-pyrrole-2-carboxamide] | 3.05 | 25 | 3.1 | > 25 | > 25 | 4.68 | – | – | – | –
17 | CC(C)OC(C)(C)c1csc(NC(=O)c2cccn2Cc2ccncc2F)n1 [Compound A25, 1-((3-fluoropyridin-4-yl)methyl)-N-(4-(2-isopropoxypropan-2-yl)thiazol-2-yl)-1H-pyrrole-2-carboxamide] | 0.314 | > 25 | 0.49 | 9.98 | > 25 | 0.692 | – | – | – | –
18 | O=C(Nc1nc(Cc2ccccc2)cs1)c1cccn1CCCc1ccncc1 [Compound A184, N-(4-benzylthiazol-2-yl)-1-(3-(pyridin-4-yl)propyl)-1H-pyrrole-2-carboxamide] | 0.448 | 11.8 | 1.08 | 2.41 | 13.3 | 0.807 | – | – | – | –
19 | O=C(Nc1nc(/C=C/c2ccc(F)cc2)cs1)c1cccn1Cc1ccncc1 [Compound A220, N-(4-(4-fluorostyryl)thiazol-2-yl)-1-(pyridin-4-ylmethyl)-1H-pyrrole-2-carboxamide] | 0.086 | > 25 | 0.628 | 3.75 | > 25 | 0.329 | – | – | – | –
20 | O=C(Nc1nc(C2CCC2)cs1)c1cccn1Cc1ccncc1 [Compound A31] | 0.596 | > 25 | 1.34 | 11.8 | > 25 | 1.63 | – | – | – | –
21 | N#Cc1ccc(/C=C/c2csc(NC(=O)c3cccn3Cc3ccncc3)n2)cc1 [Compound A224, N-(4-(4-cyanostyryl)thiazol-2-yl)-1-(pyridin-4-ylmethyl)-1H-pyrrole-2-carboxamide] | 0.141 | 20.5 | > 25 | > 25 | > 25 | 0.296 | – | – | – | –
22 | O=C(Nc1nc(/C=C/c2ccoc2)cs1)c1cccn1CCCc1ccncc1 [Compound A232, N-(4-(2-(furan-3-yl)vinyl)thiazol-2-yl)-1-(3-(pyridin-4-yl)propyl)-1H-pyrrole-2-carboxamide] | 2.99 | 13.4 | 8.6 | 21.5 | 19.7 | 14.9 | – | – | – | –
23 | CC(OC(C)(C)c1csc(NC(=O)c2cccn2Cc2ccncc2)n1)c1ccccc1 (stereo not drawn) [Compound A3, N-(4-(2-(1-phenylethoxy)propan-2-yl)thiazol-2-yl)-1-(pyridin-4-ylmethyl)-1H-pyrrole-2-carboxamide] | 0.036 | 2.91 | 0.144 | 0.58 | > 25 | 0.099 | – | – | – | –
